Literature values in patent US20180296814A1, “ADMINISTRATION OF DRUGS TO A PATIENT” (Progenity, Inc., priority 2010, published 2018).

Conditions: regional absorption in the intestinal tract, rats

In the case of salmon calcitonin, the “location of maximum absorption” value is listed as “ileum”.
